Assays:
Type in all cases: in vivo
edema = assay: rat active anaphylaxis model (paw edema after bovine serum albumin challenge); conditions: 100 mg/kg intraperitoneally; for Active Anaphylaxis % Inhibition: 1 h before challenge, paw volume 90 min post challenge
Experimental: In the rat active anaphylaxis model, groups consisting of 15-20 male rats are intraperitoneally sensitized on day zero with 500 ug of bovine serum albumin-absorbed alum admixed with 2×10^10 killed Bordatella pertussis vaccine organisms. […] The paw volume is measured using a mercury plethysmometer prior to drug administration and 90 minutes post antigenic challenge. The percent inhibition of edema is calculated as the difference in volume between the control and drug treated groups divided by the control volume times 100. The positive control drug, theophylline (90 mg/kg, po) is included in each assay. Statistical analysis of the data is done using the poolt program.

serotonin = assay: rat dermal vascular permeability test (mediator release model), serotonin challenge; conditions: 100 mg/kg
histamine [1] = assay: rat dermal vascular permeability test (mediator release model), histamine challenge; conditions: 100 mg/kg, histamine 20 ug/ml intradermal
Experimental: The furanone compounds listed in Tables 1A, 1B and 2 were used for anti-allergy treatment in the rat active anaphylaxis model and/or the rat dermal vascular permeability test (mediator release model). The results are given as the percent inhibition from the control.
In the rat dermal vascular permeability test, groups of ten male rats are intraperitoneally or perorally administered either the test compound, at a dosage of 100 mg/kg of rat weight as a 0.85% solution in saline, or the positive reference standard cyproheptadine (1 mg/kg) one hour prior to an intravenous injection of 1 ml of a 0.5% solution of Evan's blue dye into naive animals. Ten minutes later the animals are challenged by intradermally injecting 0.1 ml of a solution of either serotonin (1 ug/ml), histamine (20 ug/ml) or bradykinin (10 ug/ml) into separate sites on the back. Five minutes following challenge the animals are killed, the skin retracted, and the mean diameter of the blue wheal and flare reactions are determined. The percent inhibition of the wheal reaction is calculated as the difference in diameter between the saline control and drug treated groups divided by the control diameter times 100. Statistical analysis of the data is done using the poolt program.

bradykinin = assay: rat dermal vascular permeability test (mediator release model), bradykinin challenge; conditions: 100 mg/kg
histamine [2] = assay: rat dermal vascular permeability test (mediator release model), histamine challenge; conditions: topical, 100 mg/kg
[3] = peroral, serotonin 1 ug/ml intradermal
[4] = intraperitoneal administration, serotonin 1 ug/ml intradermal
[5] = intraperitoneal administration, bradykinin 10 ug/ml intradermal

Structure (SMILES): Cc1ccc([C@@H]2C[C@H]2NC2=C(C(=O)O)C(=O)CO2)cc1 (relative stereo)
- Active Anaphylaxis % Inhibition (edema): 45%
- % Inhibition of Mediator Release, Serotonin (serotonin; [3]): 100%
- % Inhibition of Mediator Release, Histamine (histamine [1]; peroral): 100%
- % Inhibition of Mediator Release, Bradykinin (bradykinin; topical): 100%

Structure (SMILES): CCOC(=O)C1=C(O)COC1=Nc1cccc([N+](=O)[O-])c1 [K C6 H4 NO2 --3 C2 H5]
- Active Anaphylaxis % Inhibition (edema): 37%
- % Inhibition of Mediator Release, Serotonin (serotonin; [4]): 45%
- % Inhibition of Mediator Release, Histamine (histamine [1]; intraperitoneal administration): 49%
- % Inhibition of Mediator Release, Bradykinin (bradykinin; [5]): 67%

Structure (SMILES): O=C(O)C1=C(Nc2cccc([N+](=O)[O-])c2)OCC1=O [OH H H C6 H4 NO2 --3]
- Active Anaphylaxis % Inhibition (footnote 1: edema increased) (edema; edema increased): 39%
- % Inhibition of Mediator Release, Serotonin (serotonin; [3]): 18%
- % Inhibition of Mediator Release, Histamine (histamine [1]; peroral): 16%
- % Inhibition of Mediator Release, Bradykinin (bradykinin; topical): 48%

Structure (SMILES): CC1OC(Nc2ccccc2)=C(C(=O)O)C1=O (stereo not drawn) [OH H CH3 C6 H5]
- Active Anaphylaxis % Inhibition (edema): 60%
- % Inhibition of Mediator Release, Serotonin (serotonin; [4]): 37%
- % Inhibition of Mediator Release, Histamine (histamine [1]; intraperitoneal administration): 40%
- % Inhibition of Mediator Release, Bradykinin (bradykinin; [5]): 46%

Structure (SMILES): CCOC(=O)C1=C(Nc2ccccc2)OC(C)(C)C1=O [OC2 H5 CH3 CH3 C6 H5, ethyl 4,5-dihydro-5,5-dimethyl-4-oxo-2-(phenylamino)-3-furancarboxylate]
- Active Anaphylaxis % Inhibition (edema): 16%

Structure (SMILES): COc1ccc(NC(=O)C2=C(Nc3ccc(OC)cc3)OCC2=O)cc1 [NH6 H4 OCH3 4 H H C6 H4 OCH3 4]
- % Inhibition of Mediator Release, Serotonin (serotonin; topical): 13%
- % Inhibition of Mediator Release, Bradykinin (bradykinin; topical): 39%
- % Inhibition of Mediator Release, Histamine (histamine [2]): 8%

Structure (SMILES): O=C1COC(Nc2ccccc2)=C1C(=O)Nc1ccccc1 [NHC6 H5 H H C6 H5, 4,5-Dihydro-4-oxo-N-phenyl-2-(phenylamino)-3-furancarboxamide]
- Active Anaphylaxis % Inhibition (edema): 46%

Structure (SMILES): CCOC(=O)C1=C(NC)OCC1=O [OC2 H5 H H CH3]
- % Inhibition of Mediator Release, Serotonin (serotonin; [4]): 38%
- % Inhibition of Mediator Release, Histamine (histamine [1]; intraperitoneal administration): 50%
- % Inhibition of Mediator Release, Bradykinin (bradykinin; [5]): 25%

Structure (SMILES): O=C1COC(Nc2ccc(Cl)cc2)=C1C(=O)Nc1ccc(Cl)cc1 [NHC6 H4 Cl4 H H C6 H4 Cl4]
- % Inhibition of Mediator Release, Serotonin (serotonin; [3]): 14%
- % Inhibition of Mediator Release, Histamine (histamine [1]; peroral): 15%
- % Inhibition of Mediator Release, Bradykinin (bradykinin; topical): 44%

Structure (SMILES): O=C(O)C1=C(N[C@@H]2C[C@H]2c2ccccc2)OCC1=O (relative stereo)
- Active Anaphylaxis % Inhibition (edema): 22%

Structure (SMILES): CCOC(=O)C1=C(N[C@@H]2C[C@H]2c2ccc(Cl)cc2)OCC1=O (relative stereo)
- % Inhibition of Mediator Release, Serotonin (serotonin; [3]): 51%
- % Inhibition of Mediator Release, Histamine (histamine [1]; peroral): 60%
- % Inhibition of Mediator Release, Bradykinin (bradykinin; topical): 76%

Structure (SMILES): CCOC(=O)C1=C(O)COC1=Nc1ccc(Br)cc1 [K C6 H4 Br--4 C2 H5]
- Active Anaphylaxis % Inhibition (edema): 38%
- % Inhibition of Mediator Release, Serotonin (serotonin; [4]): 46%
- % Inhibition of Mediator Release, Histamine (histamine [1]; intraperitoneal administration): 65%
- % Inhibition of Mediator Release, Bradykinin (bradykinin; [5]): 69%

Structure (SMILES): O=C([O-])C1=C(Nc2ccccc2)OCC1=O.[Na+] [O^- Na^+ H H C6 H5, 4,5-dihydro-4-oxo-2-phenylamino-3-furancarboxylic acid sodium salt]
- Active Anaphylaxis % Inhibition (edema): 17%

Structure (SMILES): CCOC(=O)C1=C(N[C@@H]2C[C@H]2c2ccccc2)OCC1=O (relative stereo)
- % Inhibition of Mediator Release, Serotonin (serotonin; [3]): 57%
- % Inhibition of Mediator Release, Histamine (histamine [1]; peroral): 35%
- % Inhibition of Mediator Release, Bradykinin (bradykinin; topical): 59%

Structure (SMILES): O=C(O)C1=C(N[C@@H]2C[C@H]2c2ccc(Cl)cc2)OCC1=O (relative stereo)
- Active Anaphylaxis % Inhibition (edema): 6%
- % Inhibition of Mediator Release, Serotonin (serotonin; [3]): 54%
- % Inhibition of Mediator Release, Histamine (histamine [1]; peroral): 56%
- % Inhibition of Mediator Release, Bradykinin (bradykinin; topical): 71%

Structure (SMILES): CCOC(=O)C1=C(O)COC1=Nc1ccc(C(C)=O)cc1 [K C6 H4 COCH3 --4 C2 H5]
- Active Anaphylaxis % Inhibition (edema): 56%
- % Inhibition of Mediator Release, Serotonin (serotonin; [4]): 79%
- % Inhibition of Mediator Release, Histamine (histamine [1]; intraperitoneal administration): 88%
- % Inhibition of Mediator Release, Bradykinin (bradykinin; [5]): 86%

Structure (SMILES): Cc1ccccc1NC(=O)C1=C(Nc2ccccc2C)OCC1=O [NHC6 H4 CH3 2 H H C6 H4 CH3 2]
- % Inhibition of Mediator Release, Serotonin (serotonin; [3]): 9%
- % Inhibition of Mediator Release, Histamine (histamine [1]; peroral): 0%
- % Inhibition of Mediator Release, Bradykinin (bradykinin; topical): 7%

Structure (SMILES): O=C(O)C1=C(Nc2cccc(C(F)(F)F)c2)OCC1=O [OH H H C6 H4 CF3 --3]
- Active Anaphylaxis % Inhibition (edema): 45%
- % Inhibition of Mediator Release, Serotonin (serotonin; [3]): 40%
- % Inhibition of Mediator Release, Histamine (histamine [1]; peroral): 26%
- % Inhibition of Mediator Release, Bradykinin (bradykinin; topical): 54%

Structure (SMILES): CCOC(=O)C1=C(O)COC1=Nc1cccc(C)c1 [K C6 H4 CH3 --3 C2 H5]
- % Inhibition of Mediator Release, Serotonin (serotonin; [4]): 75%
- % Inhibition of Mediator Release, Histamine (histamine [1]; intraperitoneal administration): 71%
- % Inhibition of Mediator Release, Bradykinin (bradykinin; [5]): 70%

Structure (SMILES): CCOC(=O)C1=C(Nc2ccc(C(=O)OCC)cc2)OCC1=O [OC2 H5 H H C6 H4 CO2 C2 H5 --4, ethyl 2-[[4-(ethoxycarbonyl)phenyl]-amino]-4,5-dihydro-4-oxo-3-furancarboxylate]
- % Inhibition of Mediator Release, Serotonin (serotonin; [3]): 18%
- % Inhibition of Mediator Release, Histamine (histamine [1]; peroral): 21%
- % Inhibition of Mediator Release, Bradykinin (bradykinin; topical): 21%

Structure (SMILES): CCOC(=O)C1=C(Nc2ccc(Cl)cc2)OCC1=O [OC2 H5 H H C6 H4 Cl--4]
- % Inhibition of Mediator Release, Serotonin (serotonin; [3]): 6.6%
- % Inhibition of Mediator Release, Histamine (histamine [1]; peroral): 3.3%
- % Inhibition of Mediator Release, Bradykinin (bradykinin; topical): 9.5%

Structure (SMILES): COc1ccccc1NC1=C(C(=O)O)C(=O)CO1 [OH H H C6 H4 OCH3 --2]
- Active Anaphylaxis % Inhibition (edema): 45%
- % Inhibition of Mediator Release, Serotonin (serotonin; [3]): 30%
- % Inhibition of Mediator Release, Histamine (histamine [1]; peroral): 27%
- % Inhibition of Mediator Release, Bradykinin (bradykinin; topical): 38%

Structure (SMILES): CCOC(=O)C1=C(Nc2cccc(C(F)(F)F)c2)OCC1=O [OC2 H5 H H C6 H4 CF3 --3]
- % Inhibition of Mediator Release, Serotonin (serotonin; [3]): 9.7%
- % Inhibition of Mediator Release, Histamine (histamine [1]; peroral): 4.1%
- % Inhibition of Mediator Release, Bradykinin (bradykinin; topical): 40%

Structure (SMILES): CC1(C)OC(Nc2ccccc2)=C(C(=O)O)C1=O [OH CH3 CH3 C6 H5]
- Active Anaphylaxis % Inhibition (edema): 44%

Structure (SMILES): O=C(O)C1=C(Nc2ccc(C(=O)O)cc2)OCC1=O [OH H H C6 H4 CO2 H--4, 2-[(4-Carboxyphenyl)amino]-4,5-dihydro-4-oxo-3-furancarboxylic Acid]
- Active Anaphylaxis % Inhibition (edema): 52%
- % Inhibition of Mediator Release, Serotonin (serotonin; [3]): 63%
- % Inhibition of Mediator Release, Histamine (histamine [1]; peroral): 64%
- % Inhibition of Mediator Release, Bradykinin (bradykinin; topical): 64%

Structure (SMILES): CCOC(=O)C1=C(O)COC1=Nc1ccccc1OC [K C6 H4 OCH3 --2 C2 H5]
- Active Anaphylaxis % Inhibition (edema): 58%

Structure (SMILES): O=C(O)C1=C(Nc2ccc(Br)cc2)OCC1=O [OH H H C6 H4 Br--4]
- Active Anaphylaxis % Inhibition (edema): 27%
- % Inhibition of Mediator Release, Serotonin (serotonin; [3]): 39%
- % Inhibition of Mediator Release, Histamine (histamine [1]; peroral): 45%
- % Inhibition of Mediator Release, Bradykinin (bradykinin; topical): 68%

Structure (SMILES): CCOC(=O)C1=C(O)COC1=Nc1ccccc1 [K C6 H5 C2 H5, Potassium 2,5-dihydro-3-ethoxycarbonyl-2-(phenylimino)-4-furanyloxide]
- Active Anaphylaxis % Inhibition (edema): 49%
- % Inhibition of Mediator Release, Serotonin (serotonin; [4]): 42%
- % Inhibition of Mediator Release, Histamine (histamine [1]; intraperitoneal administration): 31%
- % Inhibition of Mediator Release, Bradykinin (bradykinin; [5]): 51%

Structure (SMILES): COc1ccccc1NC(=O)C1=C(Nc2ccccc2OC)OCC1=O [NHC6 H4 OCH3 2 H H C6 H4 OCH3 2]
- % Inhibition of Mediator Release, Serotonin (serotonin; [3]): 18%
- % Inhibition of Mediator Release, Histamine (histamine [1]; peroral): 1%
- % Inhibition of Mediator Release, Bradykinin (bradykinin; topical): 39%

— US4845122A, “Anti-allergy treatment using 2-(substituted amino)-4,5-dihydro-4-oxo-3-furancarboxylic acids and derivatives thereof” (priority 1986, dated 1989)
